Measurements reported in US20120238865A1, “Method for Measuring the Physiological Parameters of Brain Interstitial Fluid and Brain Extracellular Space” (priority 2009, published 2012).

Key:
[1] = Linear fitting of MRI signal intensity vs contrast agent concentration in agarose; type: physicochemical
Method: According to the curve, when the concentration of the contrast agents is in the range of 0-5 mM, the SI increased with the concentration. The concentration is related to the SI. In the curve, the abscissa is the concentration of the contrast agent which reflects the mobility of the ISF in brain ECS and the ordinate is the SI of MRI. It is known by the persons skilled in art that the SI here may be the directly SI or the result which is calculated indirectly from the SI such as T1. In the exemplary embodiment, the contrast agents are Gd-DPTA. Other non-ferromagnetic, non-neurotoxicity and extracellular contrast agents, such as T1 positive MRI contrast agent, also can be used here.
According to the curve shown in FIG. 2, the liner equation of the curve is obtained as below
In the four experiments, injecting contrast agents with different concentration range are into agarose, the distribution of SI of the MRI is measured in different magnetic field intensity or different MRI sequence. When quantitative measuring the contrast agents via the SI, the value of K and B can be determined via linear fitting according to the experimental conditions,
FIG. 3 is a fitting curve of the SI and the concentration of the contrast agents corresponding to the Experiment 1 shown in Table 1. It is the measurement result under the circumstances that the magnetic field intensity is 1.5T, the MRI sequence is FLASH 2D, the contrast agent is Gd-DTPA and the concentration range is 0 to 1.2 mM. According to the fitting curve, the value of K is 337.434 and the value of B is 184.344.

[2] = MRI of contrast agent diffusion after injection into brain ECS of rat caudate nucleus; type: in vivo
Method: In this exemplary embodiment, the rat 10 is anesthetized and incised in the scalp along the sagittal suture. The periosteum was separated and the bregma was exposed. 1 μL Gd-DTPA with concentration range of 5 to 25 mM is injected into the brain ECS of the rat caudate nucleus at the rate of 0.1 μL/min.
The microsyringe is slowly removed 5 minutes after injecting. In FIG. 4, the rat narcotized is placed in the wrist coil 30 in the prone position and sent into the imaging device 20 with the examination couch 12. A T1 weighted sequence is used for the MRI scanning MR images from the imaging device 20 are processed in the image-processing unit of the controlling device 40.
FIG. 6 is a curve of SI increment (ASI) vs. time of the contrast agents along X direction of FIG. 5 at the spots respectively 1 mm, 2 mm, and 3 mm away from the injection site. The increment of SI reflected the concentration increment of the contrast agents. In FIG. 6, the peak of ASI appears in the region which is 1 mm away from the injection site about 1 h after injection, and then value of ASI slowly falls down.

For `O=C([O-])CN(CCN(CC(=O)[O-])CC(=O)O)CCN(CC(=O)[O-])CC(=O)O.[Gd+3]` [Gd-DTPA], the “Value of K (slope of SI vs concentration)” value ([1]; Experiment 1: 1.5T, FLASH 2D, concentration range 0-1.2 mM) was 337.434, the “Value of K (slope of SI vs concentration)” value ([1]; Experiment 2: 3T, FLASH 2D, concentration range 0-1.2 mM) was 247.834 and the “Value of K (slope of SI vs concentration)” value ([1]; Experiment 3: 3T, 3D MP-RAGE, concentration range 0-0.5 mM) was 1913.686. The “Value of K (slope of SI vs concentration)” value ([1]; Experiment 4: 3T, 3D MP-RAGE, concentration range 0-1 mM) was 1174.5, the “Time of peak of SI increment (ASI) after injection” value ([2]; 1 mm away from injection site along X direction, 1 μL 5 to 25 mM into caudate nucleus) was “about 1 h” and the “Course of SI increment (ASI, concentration increment) over time” value ([2]; spots 2 mm and 3 mm away from injection site (cortex)) was “first slowly increases then slowly decreases”.
